Several values for one entry are separate records, joined by “and”; a condition that tells them apart may be missing. Equal values may be shown once. Toxic doses and inconclusive results are not listed. How the source made its calls: active means survival T/C of 150% or more; inactive means T/C below 125% in these data.
Tested on: CD2F1 mice, ip Colon 26 adenocarcinoma, median survival T/C
Experiment: NCI In Vivo Anticancer Drug Screen. Data for tumor model Colon 26 Adenocarcinoma (intraperitoneal) in CD2F1 (CDF1) mice
Settings: endpoint: median survival time, higher = longer survival
Procedure: The antitumor activity of compounds was measured in mice bearing transplantable tumors. Survival or tumor size were measured and the results are expressed as the measurement made in the treated group (T) divided by the measurement made in the vehicle treated control group (C). The tumor model used in this assay is Colon 26 Adenocarcinoma (intraperitoneal) in CD2F1 (CDF1) mice

[1] = dose: 25.0 mg/kg/injection, schedule: Q04DX003 (ip), vehicle: saline with Tween-80
[2] = dose: 100.0 mg/kg/injection, schedule: Q04DX003 (ip), vehicle: saline with Tween-80
[3] = dose: 200.0 mg/kg/injection, schedule: Q04DX003 (ip), vehicle: saline with Tween-80
[4] = dose: 12.5 mg/kg/injection, schedule: Q04DX003 (ip), vehicle: Klucel (hydroxypropylcellulose) (HPC)
[5] = dose: 25.0 mg/kg/injection, schedule: Q04DX003 (ip), vehicle: Klucel (hydroxypropylcellulose) (HPC)
[6] = dose: 50.0 mg/kg/injection, schedule: Q04DX003 (ip), vehicle: Klucel (hydroxypropylcellulose) (HPC)
[7] = dose: 200.0 mg/kg/injection, schedule: Q04DX003 (ip), vehicle: Klucel (hydroxypropylcellulose) (HPC)
[8] = dose: 100.0 mg/kg/injection, schedule: Q04DX003 (ip), vehicle: Klucel (hydroxypropylcellulose) (HPC)

Measured: T/C

COc1ccc(CC2C(=O)NC(C)C(=O)N(C)C3Cc4ccc(cc4)Oc4cc(ccc4O)CC(C(=O)NC(C)C(=O)NC(C)C(=O)N2C)N(C)C3=O)cc1 (stereo not given)
inactive: dose: 0.5 mg/kg/injection, schedule: Q04DX003 (ip), vehicle: saline 97 % of control | dose: 1.0 mg/kg/injection, schedule: Q04DX003 (ip), vehicle: saline 98 % of control | dose: 2.0 mg/kg/injection, schedule: Q04DX003 (ip), vehicle: saline 87 % of control | dose: 2.59 mg/kg/injection, schedule: Q04DX003 (ip), vehicle: other 99 % of control | dose: 4.32 mg/kg/injection, schedule: Q04DX003 (ip), vehicle: other 103 % of control | dose: 7.2 mg/kg/injection, schedule: Q04DX003 (ip), vehicle: other 112 % of control | dose: 12.0 mg/kg/injection, schedule: Q04DX003 (ip), vehicle: other 113 % of control

CC(=O)Oc1ccccc1C(=O)O
inactive: dose: 72.0 mg/kg/injection, schedule: Q04DX002 (ip), vehicle: saline with Tween-80 89 % of control

O=NN(CCCl)C(=O)NC1CCCCC1
inactive: dose: 10.0 mg/kg/injection, schedule: Q04DX003 (ip), vehicle: carboxymethylcellulose (CMC) 121 % of control
active: dose: 40.0 mg/kg/injection, schedule: Q04DX003 (ip), vehicle: carboxymethylcellulose (CMC) 196 % of control | dose: 80.0 mg/kg/injection, schedule: Q04DX003 (ip), vehicle: carboxymethylcellulose (CMC) 159 % of control

Nc1nncs1
inactive: dose: 50.0 mg/kg/injection, schedule: Q01DX005 (ip), vehicle: saline 112 % of control | dose: 50.0 mg/kg/injection, schedule: Q04DX003 (ip), vehicle: saline 119 % of control | dose: 100.0 mg/kg/injection, schedule: Q01DX005 (ip), vehicle: saline 120 % of control

Nc1ncn(C2OC(CO)C(O)C2O)c(=O)n1 (stereo not given)
inactive: dose: 13.0 mg/kg/injection, schedule: Q04DX003 (iv), vehicle: saline 107 % of control | dose: 21.0 mg/kg/injection, schedule: Q04DX003 (iv), vehicle: saline 92 % of control

O=c1[nH]c(=O)n(C2CC(O)C(CO)O2)cc1F (stereo not given)
active: dose: 80.0 mg/kg/injection, schedule: Q07DX003 (ip), vehicle: saline 155 % of control | dose: 120.0 mg/kg/injection, schedule: Q07DX003 (ip), vehicle: saline 161 % of control and 171 % of control | dose: 190.0 mg/kg/injection, schedule: Q07DX003 (ip), vehicle: saline 150 % of control and 167 % of control | dose: 280.0 mg/kg/injection, schedule: Q07DX003 (ip), vehicle: saline 167 % of control and 169 % of control

COc1cccc2c1C(=O)c1c(O)c3c(c(O)c1C2=O)C[C@@](O)(C(C)=O)C[C@@H]3OC1CC(N(Cc2ccccc2)Cc2ccccc2)C(O)C(C)O1 (stereo not given in full)
inactive: dose: 3.0 mg/kg/injection, schedule: Q04DX002 (ip), vehicle: saline with Tween-80 104 % of control

N=[N+]=CC(=O)OCC(N)C(=O)O (stereo not given)
inactive: dose: 3.12 mg/kg/injection, schedule: Q04DX003 (ip), vehicle: water 113 % of control | dose: 6.25 mg/kg/injection, schedule: Q04DX003 (ip), vehicle: water 113 % of control | dose: 12.5 mg/kg/injection, schedule: Q04DX003 (ip), vehicle: water 105 % of control | dose: 25.0 mg/kg/injection, schedule: Q04DX003 (ip), vehicle: water 111 % of control | dose: 50.0 mg/kg/injection, schedule: Q04DX003 (ip), vehicle: water 95 % of control

Clc1ccc(C(c2ccccc2Cl)C(Cl)Cl)cc1 (stereo not given)
inactive: [1] 110 % of control | dose: 50.0 mg/kg/injection, schedule: Q04DX003 (ip), vehicle: saline with Tween-80 98 % of control | [2] 96 % of control | [3] 104 % of control | dose: 400.0 mg/kg/injection, schedule: Q04DX003 (ip), vehicle: saline with Tween-80 96 % of control

O=NN(CCCl)C(=O)NCCCl
active: dose: 4.0 mg/kg/injection, schedule: Q04DX003 (ip), vehicle: saline + alcohol 168 % of control | dose: 8.0 mg/kg/injection, schedule: Q04DX003 (ip), vehicle: saline + alcohol 250 % of control | dose: 16.0 mg/kg/injection, schedule: Q04DX003 (ip), vehicle: saline + alcohol 335 % of control | dose: 20.0 mg/kg/injection, schedule: Q04DX003 (oral), vehicle: saline + alcohol 161 % of control | dose: 33.0 mg/kg/injection, schedule: Q04DX003 (oral), vehicle: saline + alcohol 255 % of control | dose: 53.0 mg/kg/injection, schedule: Q04DX003 (oral), vehicle: saline + alcohol 289 % of control | dose: 85.0 mg/kg/injection, schedule: Q04DX003 (oral), vehicle: saline + alcohol 285 % of control

CN(C1=NS(=O)(=O)N=C(N(C)c2ccccc2)O1)c1ccccc1
inactive: [4] 96 % of control | [5] 89 % of control | [6] 95 % of control | [7] 90 % of control

Cc1c2ccncc2c(C)c2c1[nH]c1ccccc12
inactive: dose: 12.5 mg/kg/injection, schedule: Q04DX002 (ip), vehicle: saline 122 % of control | dose: 12.5 mg/kg/injection, schedule: Q04DX003 (ip), vehicle: saline with Tween-80 112 % of control
active: dose: 12.5 mg/kg/injection, schedule: Q04DX002 (ip), vehicle: Klucel (hydroxypropylcellulose) (HPC) 158 % of control | [4] 186 % of control | dose: 25.0 mg/kg/injection, schedule: Q04DX002 (ip), vehicle: saline 156 % of control | [5] 263 % of control | [1] 152 % of control | dose: 50.0 mg/kg/injection, schedule: Q04DX002 (ip), vehicle: Klucel (hydroxypropylcellulose) (HPC) 158 % of control | [6] 242 % of control | dose: 100.0 mg/kg/injection, schedule: Q04DX002 (ip), vehicle: Klucel (hydroxypropylcellulose) (HPC) 170 % of control | dose: 100.0 mg/kg/injection, schedule: Q04DX002 (ip), vehicle: saline 150 % of control | [8] 242 % of control | [2] 165 % of control | dose: 200.0 mg/kg/injection, schedule: Q04DX002 (ip), vehicle: saline 156 % of control | [3] 214 % of control

CCOC(=O)Nc1cc2c(c(N)n1)N=C(CN(C)c1ccccc1)CN2
active: [5] 177 % of control
inactive: dose: 6.25 mg/kg/injection, schedule: Q04DX003 (ip), vehicle: Klucel (hydroxypropylcellulose) (HPC) 108 % of control | [6] 119 % of control

CCCCCC(=O)O[C@]1(C(C)=O)CC[C@H]2[C@@H]3CCC4=CC(=O)CC[C@]4(C)[C@H]3CC[C@@]21C
inactive: [5] 101 % of control | [6] 106 % of control | [8] 100 % of control | [7] 106 % of control | dose: 400.0 mg/kg/injection, schedule: Q04DX003 (ip), vehicle: Klucel (hydroxypropylcellulose) (HPC) 103 % of control

c1cc[c]([Sn][c]2ccccc2)cc1
inactive: dose: 0.62 mg/kg/injection, schedule: Q04DX003 (ip), vehicle: saline with Tween-80 97 % of control | dose: 0.62 mg/kg/injection, schedule: Q04DX003 (ip), vehicle: saline 105 % of control | dose: 1.25 mg/kg/injection, schedule: Q04DX003 (ip), vehicle: saline with Tween-80 92 % of control | dose: 1.25 mg/kg/injection, schedule: Q04DX003 (ip), vehicle: saline 112 % of control | dose: 2.5 mg/kg/injection, schedule: Q04DX003 (ip), vehicle: saline with Tween-80 100 % of control | dose: 2.5 mg/kg/injection, schedule: Q04DX003 (ip), vehicle: saline 107 % of control | dose: 5.0 mg/kg/injection, schedule: Q04DX003 (ip), vehicle: saline with Tween-80 108 % of control | dose: 5.0 mg/kg/injection, schedule: Q04DX003 (ip), vehicle: saline 117 % of control | dose: 10.0 mg/kg/injection, schedule: Q04DX003 (ip), vehicle: saline 86 % of control

Cc1cnc(/C=N\NC(N)=S)c2cccc(N)c12
inactive: dose: 25.0 mg/kg/injection, schedule: Q04DX003 (iv), vehicle: other 110 % of control | dose: 42.0 mg/kg/injection, schedule: Q04DX003 (iv), vehicle: other 103 % of control | dose: 68.0 mg/kg/injection, schedule: Q04DX003 (iv), vehicle: other 108 % of control

C=C(C)[C@]12CC(C)C34OC(/C=C\C=C\CCCCCCCCC)(O[C@@H]1[C@@H]3[C@@H]1O[C@]1(CO)[C@@H](O)[C@]1(O)C(=O)C(C)=C[C@@H]41)O2 (stereo not given in full)
inactive: dose: 0.18 mg/kg/injection, schedule: Q04DX003 (ip), vehicle: distilled water + alcohol 102 % of control | dose: 0.37 mg/kg/injection, schedule: Q04DX003 (ip), vehicle: distilled water + alcohol 105 % of control | dose: 0.75 mg/kg/injection, schedule: Q04DX003 (ip), vehicle: distilled water + alcohol 114 % of control

Reference: PubChem BioAssay AID210 (DTP/NCI, 2004)
